In patent publication US7166435B2 (priority 2001, dated 2007):
“Also recorded” adds a separate entry of the source. Read-outs that look alike come from different tables or passages of the source.

Key:
influenza virus = type: in vivo, ferret; settings: for Mean Difference (I−J), Weight Change separated into pens: pairwise comparison
Influenza A/Moscow/10/99 = type: cell-based; settings: Citrate Buffer control
[1] = test system: Influenza B/Guangdong/120/00; type: cell-based; settings: Citrate Buffer control
[2] = recipient ferrets, 8 per group, >2SD rise in temperature

SMILES: CCOC(=O)C1=C[C@@H](OC(CC)CC)[C@H](NC(C)=O)[C@@H](N)C1 [Tamiflu ™, oseltamivir phosphate]
- No. of Ferrets per pen with Fever (>2SD rise), mild febrile illness (influenza virus; four recipient ferrets per pen, pens a and b): 2
- X^2 analysis of fever (2SD rise), p PBS versus treatment (influenza virus; in vivo): 0.106
- X^2 analysis of fever (3SD rise), p PBS versus treatment (influenza virus; in vivo): 0.106
- seroconversion of recipient ferrets (influenza virus; in vivo): did not seroconvert; also recorded: no seroconversion
- Mean Difference (I−J), Weight Change separated into pens (influenza virus; (I) group PBS minus (J) treatment group, recipient ferrets, weight loss peak to trough as percentage of day 0 baseline weight): −1.880
- weight loss, p PBS versus treatment (influenza virus; recipient ferrets): 0.003
- % within Group No., Fever => 2SD rise from baseline: No (influenza virus; [2]): 50%
- % within Group No., Fever => 2SD rise from baseline: yes (influenza virus; [2]): 50%
- Count of ferrets, Fever => 2SD rise from baseline: No (influenza virus; [2]): 4
- Count of ferrets, Fever => 2SD rise from baseline: yes (influenza virus; [2]): 4
- Weight Change separated into pens, Mean (influenza virus; recipient ferrets, peak to trough as a percentage of the baseline weight on day 0): −.980%
- No. of ferrets per group with Fever (>2SD rise), mild febrile illness (influenza virus; two pens per group): 4
- No. of ferrets per group with Fever (>3SD rise) (influenza virus; two pens per group): 1

SMILES: O=C(O)CC(O)(CC(=O)O)C(=O)O [Citrate Buffer]
- A/Moscow log reductions (Influenza A/Moscow/10/99; 1 minute incubation): 1.00 −log10 TCID50
- Residual A/Moscow titer (Influenza A/Moscow/10/99; 1 minute incubation): 1.80 −log10 TCID50
- A/Moscow log reductions (Influenza A/Moscow/10/99; 2 minute incubation): 1.00 −log10 TCID50
- Residual A/Moscow titer (Influenza A/Moscow/10/99; 2 minute incubation): 1.80 −log10 TCID50
- A/Moscow log reductions (Influenza A/Moscow/10/99; 5 minute incubation): 2.80 −log10 TCID50
- Residual A/Moscow titer (Influenza A/Moscow/10/99; 5 minute incubation): 0.00 −log10 TCID50
- B/Guangdong log reductions ([1]; 1 minute incubation): 1.80 −log10 TCID50
- Residual B/Guangdong titer ([1]; 1 minute incubation): 0.00 −log10 TCID50
- B/Guangdong log reductions ([1]; 2 minute incubation): 1.80 −log10 TCID50
- Residual B/Guangdong titer ([1]; 2 minute incubation): 0.00 −log10 TCID50
- B/Guangdong log reductions ([1]; 5 minute incubation): 1.80 −log10 TCID50
- Residual B/Guangdong titer ([1]; 5 minute incubation): 0.00 −log10 TCID50

SMILES: CCOC(=O)C1=C[C@@H](OC(CC)CC)[C@H](NC(C)=O)[C@@H](N)C1 [Tamiflu]
- Mean Difference (I−J), Weight Change separated into pens (influenza virus; (I) treatment group minus (J) 25% horseradish): .161
- Mean Difference (I−J), Weight Change separated into pens (influenza virus; (I) treatment group minus (J) 50% horseradish): .497
- Mean Difference (I−J), Weight Change separated into pens (influenza virus; (I) treatment group minus (J) 100% Horseradish): .251
- Mean Difference (I−J), Weight Change separated into pens (influenza virus; (I) treatment group minus (J) PBS, recipient ferrets): −1.880
